Laboratory results reported in patent publication US10561676B2, “Method for treating cancer using dual antagonists of CXCR1 and CXCR2” (Syntrix Biosystems, Inc., priority 2018, dated 2020).

Tests used:
[1] = Stability in human liver microsomes (NADPH-dependent); type: in vitro ADME
Procedure: The compounds were incubated in duplicate with human liver microsomes at 37° C. The reaction contained microsomal protein in 100 mM potassium phosphate, 2 mM NADPH, 3 mM MgCl2, pH 7.4. A control was run for each compound omitting NADPH to detect NADPH-independent degradation. An aliquot was removed from each experimental and control reaction at 0, 10, 20, 30, and 60 minutes and mixed with an equal volume of ice-cold Stop Solution (0.3% acetic acid in acetonitrile containing haloperidol, diclofenac, or other internal standard). Stopped reactions were incubated for at least ten minutes at −20° C., and an additional volume of water was added. The samples were centrifuged to remove precipitated protein, and the supernatants were analyzed by LCMS/MS to quantitate the remaining compound. Data were converted to percent remaining by dividing by the time zero concentration value. Data were fit to a first-order decay model to determine half-life. Intrinsic clearance was calculated from the half-life and the protein concentrations: CLint=ln(2)/(t½[microsomal protein]). […] More surprising is that eliminating the ring nitrogen in SX-517 yielded a half-life even larger than that of SX-682. The results as a whole led to no SAR predictive of the surprising stability of SX-682.

[2] = test system: LLC syngeneic mouse model of lung cancer; assay: LLC syngeneic mouse model of lung cancer; type: in vivo
Procedure: The Lewis lung carcinoma (LLC) mouse model (Kellar, 2015, Biomed Res Int, 2015:621324, herein incorporated by reference) was used to evaluate the effect of SX-682 alone and in combination with anti-PD-1 antibody. LLC mouse […] cells were cultured, then mice were injected with 0.5×10^6 LLC cells on day 0, and on day 18 treatment was initiated. Mice were treated with vehicle (control), SX-682 alone (50 mg/kg twice daily, oral), anti-PD-1 alone (100 μg twice weekly, i.p.), or SX-682 in combination with anti-PD-1 (N=5 per cohort). SX-682 was used as a spray dried dispersion (Formulation Example 1), and was administered to mice via oral gavage as a suspension in 0.5% aq. methylcellulose.

MDSCs = assay: GROα-mediated MDSC migration; type: cell-based, mouse; conditions: 0.1, 1 and 10 μM, 100 ng/ml GROα, 12 hours
Procedure: Using the of method of Katoh 2013 to induce and isolate MDSCs, male BALBc mice were given a single intraperitoneal injection of azoxymethane (AOM, 10 mg/kg). Seven days later, these mice were given 4 cycles of water and water containing 1.25% dextran sulfate sodium (DSS). One cycle consisted of providing mice with regular drinking water for 7 days, followed by 1.25% aqueous DSS for 7 days, followed by regular drinking water for 7 days. MDSCs were isolated from femurs and blood of AOM/DSS-treated BALBc mice using the Myeloid-Derived Suppressor Cell Isolation Kit (Miltenyi Biotec) after lysis of red blood cells (RBC) according to the manufacturer's instructions. GROα (CXCL1) was placed in the bottom chamber of a 24-well plate at a concentration of 100 ng/ml. MDSCs isolated from blood of AOM/DSS-treated BALBc mice were seeded at a density of 1×10^6/well in the upper chamber (3 m, BD Falcon). After incubation for 12 hours, migrated cells were quantified by flow cytometry using COUNTBRIGHT™ Absolute Counting Beads (Molecular Probes). To evaluate the effect of SX-682 on GROα-mediated MDSC migration, aqueous DMSO solutions of SX-682 were added to the MDSC-seeded wells prior to migration. The test concentrations of SX-682 were 0.1, 1 and 10 μM, and the DMSO concentration was <1%.

[3] = test system: T11 mouse model of breast cancer; assay: T11 mouse model of breast cancer; type: in vivo
Text: The T11 model is a validated mouse model of breast cancer, which derives from the serial orthotopic transplantation of a murine breast tumor derived from a p53-null mouse into a syngeneic p53 competent recipient, and features sporadic, somatic K-Ras mutation (Herschkowitz, 2012, Proc Natl Acad Sci, 109:2778-83, herein incorporated by reference). Tumors from the T11 model display an RNA expression pattern characteristic of the human claudin-low disease, and are extremely aggressive, with the majority of untreated animals surviving less than 21 days from the time of enrollment in the therapy studies. Treatment regimens were started following tumor manifestation. SX-682 was given orally via medicated feed, at an approximate dose of 10 mg/day/mouse. In brief, the medicated feed was prepared by Research Diets (New Brunswick, N.J.) by incorporating 15.2 grams of SX-682 spray dried dispersion (as prepared in Formulation Example 1) into 1042 grams of standard rodent diet with 10% kcals from fat. The medicated feed was formed into pellets. Carboplatin (CP) was administered once weekly via intraperitoneal injection at a dose of 50 mg/kg. […] Mean±SE. *** P<0.0001 (linear regression).

CXCR2 = molecular target: T1, CXCR2 (Homo sapiens, UniProt P25025); assay: Wash-resistant inhibition of CXCL8-mediated calcium flux, CXCR2-transfected RBL cells; type: cell-based; conditions: 30 min incubation at 0.4, 2, 10 μM, then washout
T1 construct: expressed in transfected cells
T1 sequence (P25025 1-360): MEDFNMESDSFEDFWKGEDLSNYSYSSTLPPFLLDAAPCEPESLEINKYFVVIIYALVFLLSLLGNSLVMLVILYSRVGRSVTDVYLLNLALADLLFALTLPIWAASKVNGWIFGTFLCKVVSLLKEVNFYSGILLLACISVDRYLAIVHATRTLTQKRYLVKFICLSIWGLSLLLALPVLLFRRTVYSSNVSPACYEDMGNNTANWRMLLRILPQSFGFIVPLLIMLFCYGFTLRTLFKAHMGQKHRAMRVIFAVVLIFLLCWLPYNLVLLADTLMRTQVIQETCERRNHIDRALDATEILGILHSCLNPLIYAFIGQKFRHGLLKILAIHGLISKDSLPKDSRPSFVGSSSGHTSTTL
Procedure: (§1) In order to test this hypothesis, RBL cells (10^7 cells/ml) stably transfected with either CXCR1 or CXCR2 were (1) incubated with SX-682 at various concentrations for 30 minutes at 37° C., (2) washed and resuspended in assay buffer (RPMI/2% serum) at room temperature, and (3) assayed for CXCL8-mediated calcium response at time points up to 12 h after inhibitor washout. The concentrations of SX-682 tested were 0 (positive control), 0 (negative control), 0.4, 2, and 10 μM. At 30 minutes before each time point, a 56.25 μl aliquot of the cells were removed and loaded for 30 minutes at room temperature in the dark with FLIPR™ 3 reagent (262.5 μl per tube). Following FLIPR™ 3 incubation, cells were assayed for CXCL8 mediated intracellular calcium release as described in Pharmacology Example 1.

CXCR1 = molecular target: T2, CXCR1 (Homo sapiens, UniProt P25024); assay: Wash-resistant inhibition of CXCL8-mediated calcium flux, CXCR1-transfected RBL cells; type: cell-based; conditions: 30 min incubation at 0.4, 2, 10 μM, then washout
T2 construct: expressed in transfected cells
T2 sequence (P25024 1-350): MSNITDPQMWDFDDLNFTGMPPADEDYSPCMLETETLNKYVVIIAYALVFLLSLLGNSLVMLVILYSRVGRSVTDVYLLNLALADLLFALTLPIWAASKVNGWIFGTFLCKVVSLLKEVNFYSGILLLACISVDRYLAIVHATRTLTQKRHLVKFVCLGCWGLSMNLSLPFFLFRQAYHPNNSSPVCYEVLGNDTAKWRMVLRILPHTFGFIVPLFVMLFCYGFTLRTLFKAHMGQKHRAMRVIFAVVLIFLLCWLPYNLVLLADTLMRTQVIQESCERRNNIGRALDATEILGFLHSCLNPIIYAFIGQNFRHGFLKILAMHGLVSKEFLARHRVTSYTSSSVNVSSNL
Procedure: as §1

With O=C(Nc1ccc(F)cc1)c1cnc(SCc2cc(OC(F)(F)F)ccc2B(O)O)nc1 [SX-682, 2-(2-boronic acid-5-trifluoromethoxy-benzylsulfanyl)-pyrimidine-5-carboxylic acid (4-fluoro-phenyl)-amide] the “microsomal half-life larger than SX-671 or SX-576” value [1] was 6 fold, the microsomal CLint ([1]; pH 7.4, 37° C., NADPH-dependent, read-out: CLint, microsomal intrinsic clearance) was 2.1 µL/min/mg and the “tumor growth, SX-682 monotherapy” value ([2]; 50 mg/kg twice daily, oral) was “significantly slowed tumor growth”. For the same compound, the “tumor growth, SX-682 in combination with anti-PD-1” value ([2]; SX-682 50 mg/kg twice daily oral + anti-PD-1 100 μg twice weekly i.p.) was “significantly better than either therapy alone”, the “survival, SX-682 in combination with anti-PD-1” value ([2]; vs vehicle or anti-PD-1 alone, up to 66 days) was “significantly enhanced survival” and the “GROα-mediated MDSC migration” value (MDSCs) was “effectively inhibit GROα-mediated MDSC migration in a dose-dependent manner”. The “tumor volume, SX-682 alone” value ([3]; 10 mg/day/mouse oral, 1-2 weeks) was “effective therapy”, the “tumor growth, SX-682 added to carboplatin” value ([3]; SX-682 10 mg/day/mouse oral feed + CP 50 mg/kg weekly i.p.) was “significantly reduced tumor growth” and the “time inhibition of calcium flux is sustained after washout” value (CXCR2) was “at least 12 hours”. For the same compound, the “time inhibition of calcium flux is sustained after washout” value (CXCR1) was “at least 12 hours”.
